Assay results taken from patent publication US11566057B2, “Long-acting co-agonists of the glucagon and GLP-1 receptors” (Merck Sharp & Dohme Corp., priority 2017, dated 2023).
Read-outs that look alike come from different tables or passages of the source. Numbered stars: 1 amine (or outer) side, 2 acyl side, 3 side chain; on linkers, the order of the positions; unused ones are H or OH. Square brackets hold non-standard residues; d marks the D form. Side chains are listed from the residue outwards. Peptide text beside a SMILES is read from it. * marks the point of attachment. Phe(4-CH2NH2) = NCc1ccc(C[C@H](N)C(=O)O)cc1; C18 diacid = O=C(O)CCCCCCCCCCCCCCCCC(=O)*; αMeW = C[C@](N)(Cc1c[nH]c2ccccc12)C(=O)O; C16 diacid = O=C(O)CCCCCCCCCCCCCCC(=O)*; γGlu = O=C(O)[C@H](CCC(=O)[*:2])N[*:1]; Met(O2) = CS(=O)(=O)CC[C@H](N)C(=O)O; αMeD = C[C@](N)(CC(=O)O)C(=O)O; αMeS = C[C@](N)(CO)C(=O)O; AEEA = NCCOCCOCC(=O)O; Aib = CC(C)(N)C(=O)O

How the values were obtained:
[1] = molecular target: T1, human GCGR (Homo sapiens, UniProt P47871); assay: cAMP activity assay at the Glucagon receptor (GCGR); assay type: cell-based; conditions: for hGCGR/hGLP1R (hTone): ratio of GCGR EC50 to GLP1R EC50
T1 construct: expressed in transfected cells; growth medium holds Blasticidin and Hygromycin
Summary of the method: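 Peptides serially diluted from DMSO (10 points) and added to frozen-stock cells bearing human GLP1R (10,000 cells/well) or GCGR (30,000 cells/well), 1 h at RT, dark. EC50 by four-parameter logistic fit of HitHunter cAMPXS luminescence, read following overnight RT incubation.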

[2] = molecular target: T2, human GLP1R (Homo sapiens, UniProt P43220); assay: cAMP activity assay at the GLP-1 receptor (GLP1R); assay type: cell-based
T2 construct: expressed in transfected cells; growth medium holds Blasticidin and Hygromycin
Procedure: Activity of the peptides at the Glucagon receptor (GCGR) and GLP-1 receptor (GLP1R) was measured in a cAMP activity assay.
GCG/GLP-1 receptor co-agonist peptides were dissolved in 100% DMSO (dimethyl sulfoxide) and serially diluted to generate 10 point titrations. The peptide solutions were then transferred into 384-well assay plates (150 nL/well). Assay ready frozen cells expressing human GLP1R or human GCGR were suspended in growth media consisting of DMEM medium (GIBCO®), 10% FBS (GIBCO®), 1×NEAA(GIBCO®), 1×P/S (GIBCO®), 10 ug/mL Blasticidin (GIBCO®) and 200 μg/mL Hygromycin (GIBCO®). […] The cell suspensions (15 μL) were then added to the assay plates containing the peptide solutions (30,000 cells/well for human GCGR; 10,000 cells/well for human GLP1R). The cells were incubated for 1 hour at room temperature in the dark. Production of cAMP was determined using HitHunter™ cAMPXS kits (DiscoverX) following manufacturer protocol. The plates were incubated for overnight at room temperature in the dark. Luminescence was measured using an EnVision Multilabel plate reader (Perkin Elmer). Native GLP-1 and Glucagon (Bachem) are used as control peptides. EC50 values were calculated using uses a 4 parameter logistic fit based on the Levenberg-Marquardt algorithm.

[3] = summary statement: EC50 at each of the glucagon and GLP-1 receptors, read-out: EC50 at the glucagon receptor
[4] = summary statement: EC50 at each of the glucagon and GLP-1 receptors, read-out: EC50 at the GLP-1 receptor
[5] = cells expressing human GCGR, cAMP production, buffer with or without 20% human serum (not stated which), read-out: GCGR EC50 human

T1 sequence (P47871 26-477): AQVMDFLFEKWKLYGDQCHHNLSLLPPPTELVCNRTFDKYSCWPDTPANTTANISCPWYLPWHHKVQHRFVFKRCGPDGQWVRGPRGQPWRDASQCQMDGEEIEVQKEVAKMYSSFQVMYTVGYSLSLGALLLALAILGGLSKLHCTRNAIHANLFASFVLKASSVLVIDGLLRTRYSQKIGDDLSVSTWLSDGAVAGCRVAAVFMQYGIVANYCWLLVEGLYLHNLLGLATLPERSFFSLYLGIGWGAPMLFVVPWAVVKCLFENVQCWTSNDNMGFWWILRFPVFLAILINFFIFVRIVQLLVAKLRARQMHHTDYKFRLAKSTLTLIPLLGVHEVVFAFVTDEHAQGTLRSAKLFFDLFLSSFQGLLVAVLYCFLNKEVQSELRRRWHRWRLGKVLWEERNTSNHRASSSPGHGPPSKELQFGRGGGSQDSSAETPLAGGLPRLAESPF
T2 sequence (P43220 24-463): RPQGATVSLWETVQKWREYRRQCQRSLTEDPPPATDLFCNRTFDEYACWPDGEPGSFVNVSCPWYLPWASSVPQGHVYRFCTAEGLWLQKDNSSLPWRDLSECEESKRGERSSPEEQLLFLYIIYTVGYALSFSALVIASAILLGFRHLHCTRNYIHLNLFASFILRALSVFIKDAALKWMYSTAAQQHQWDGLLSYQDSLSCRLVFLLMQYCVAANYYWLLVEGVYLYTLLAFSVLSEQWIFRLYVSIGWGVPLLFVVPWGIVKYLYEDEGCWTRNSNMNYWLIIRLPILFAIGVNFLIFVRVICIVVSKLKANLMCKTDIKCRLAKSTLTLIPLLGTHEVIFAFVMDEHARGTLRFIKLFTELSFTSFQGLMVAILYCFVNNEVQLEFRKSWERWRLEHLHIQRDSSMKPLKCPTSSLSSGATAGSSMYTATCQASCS

Row | hGCGR/hGLP1R (hTone) [1] | EC50 [1, 3] | EC50 [2, 4] | EC50 [1, 5] | EC50 ([2]; cells expressing human GLP1R, cAMP production, buffer with or without 20% human serum (not stated which), read-out: GLP1R EC50 human) | SMILES
1 | 1.3 | < 5 nM | < 5 nM | – | – | CC(C)C[C@H](NC(=O)[C@H](Cc1ccc(O)cc1)NC(=O)[C@H](CCCCN)NC(=O)[C@H](CO)NC(=O)[C@H](Cc1ccc(O)cc1)NC(=O)[C@H](CC(=O)O)NC(=O)[C@H](CO)NC(=O)[C@@H](NC(=O)[C@H](Cc1ccccc1)NC(=O)[C@@H](NC(=O)CNC(=O)[C@H](CCC(N)=O)NC(=O)C(C)(C)NC(=O)[C@@H](N)Cc1c[nH]cn1)[C@@H](C)O)[C@@H](C)O)C(=O)N[C@@H](CC(=O)O)C(=O)N[C@@H](C)C(=O)N[C@@H](CCCNC(=N)N)C(=O)N[C@@H](C)C(=O)N[C@@H](C)C(=O)N[C@@H](CCCCNC(=O)COCCOCCNC(=O)COCCOCCNC(=O)CC[C@H](NC(=O)CCCCCCCCCCCCCCCCC(=O)O)C(=O)O)C(=O)N[C@@H](CC(=O)O)C(=O)N[C@@H](Cc1ccccc1)C(=O)N[C@H](C(=O)N[C@@H](CCC(N)=O)C(=O)N[C@@](C)(Cc1c[nH]c2ccccc12)C(=O)N[C@@H](CC(C)C)C(=O)N[C@@H](CCS(C)(=O)=O)C(=O)N[C@@H](CC(=O)O)C(=O)N[C@H](C(N)=O)[C@@H](C)O)C(C)C [TP631] (H-H[Aib]QGTFTSDYSKYLDARAAK([AEEA-AEEA-γGlu-C18 diacid])DFVQ[αMeW]L[Met(O2)]DT-NH2; N-terminus assumed)
2 | 0.6 | < 5 nM | < 5 nM | 0.86 nM | – | CC(C)C[C@H](NC(=O)[C@H](Cc1ccc(O)cc1)NC(=O)[C@H](CCCCN)NC(=O)[C@H](CO)NC(=O)[C@H](Cc1ccc(O)cc1)NC(=O)[C@H](CC(=O)O)NC(=O)[C@H](CO)NC(=O)[C@@H](NC(=O)[C@H](Cc1ccccc1)NC(=O)[C@@H](NC(=O)CNC(=O)[C@H](CCC(N)=O)NC(=O)[C@](C)(CO)NC(=O)[C@@H](N)Cc1c[nH]cn1)[C@@H](C)O)[C@@H](C)O)C(=O)N[C@@H](CC(=O)O)C(=O)N[C@@H](C)C(=O)N[C@@H](CCCNC(=N)N)C(=O)N[C@@H](C)C(=O)N[C@@H](C)C(=O)N[C@@H](CCCCNC(=O)COCCOCCNC(=O)COCCOCCNC(=O)CC[C@H](NC(=O)CCCCCCCCCCCCCCC(=O)O)C(=O)O)C(=O)N[C@@H](CC(=O)O)C(=O)N[C@@H](Cc1ccccc1)C(=O)N[C@H](C(=O)N[C@@H](CCC(N)=O)C(=O)N[C@@H](Cc1c[nH]c2ccccc12)C(=O)N[C@@H](CC(C)C)C(=O)N[C@@H](CCS(C)(=O)=O)C(=O)N[C@@](C)(CC(=O)O)C(=O)N[C@H](C(N)=O)[C@@H](C)O)C(C)C [TP614] (H-H[αMeS]QGTFTSDYSKYLDARAAK([AEEA-AEEA-γGlu-C16 diacid])DFVQWL[Met(O2)][αMeD]T-NH2; N-terminus assumed)
3 | 1.6 | < 5 nM | < 5 nM | – | – | CC(C)C[C@H](NC(=O)[C@H](Cc1ccc(O)cc1)NC(=O)[C@H](CCCCN)NC(=O)[C@H](CO)NC(=O)[C@H](Cc1ccc(O)cc1)NC(=O)[C@H](CC(=O)O)NC(=O)[C@H](CO)NC(=O)[C@@H](NC(=O)[C@H](Cc1ccccc1)NC(=O)[C@@H](NC(=O)CNC(=O)[C@H](CCC(N)=O)NC(=O)C(C)(C)NC(=O)[C@@H](N)Cc1c[nH]cn1)[C@@H](C)O)[C@@H](C)O)C(=O)N[C@@H](CC(=O)O)C(=O)N[C@@H](C)C(=O)N[C@@H](CCCNC(=N)N)C(=O)N[C@@H](C)C(=O)N[C@@H](C)C(=O)N[C@@H](CCC(N)=O)C(=O)N[C@@H](Cc1ccc(CNC(=O)COCCOCCNC(=O)COCCOCCNC(=O)CC[C@H](NC(=O)CCCCCCCCCCCCCCCCC(=O)O)C(=O)O)cc1)C(=O)N[C@@H](Cc1ccccc1)C(=O)N[C@H](C(=O)N[C@@H](CCC(N)=O)C(=O)N[C@@H](Cc1c[nH]c2ccccc12)C(=O)N[C@@H](CC(C)C)C(=O)N[C@@H](CCS(C)(=O)=O)C(=O)N[C@@](C)(CC(=O)O)C(=O)N[C@H](C(N)=O)[C@@H](C)O)C(C)C [TP634] (H-H[Aib]QGTFTSDYSKYLDARAAQ[Phe(4-CH2NH2)]([AEEA-AEEA-γGlu-C18 diacid])FVQWL[Met(O2)][αMeD]T-NH2)
4 | 3.6 | < 5 nM | < 5 nM | – | 0.41 nM | CC(C)C[C@H](NC(=O)[C@H](Cc1ccc(O)cc1)NC(=O)[C@H](CCCCN)NC(=O)[C@H](CO)NC(=O)[C@H](Cc1ccc(O)cc1)NC(=O)[C@H](CC(=O)O)NC(=O)[C@H](CO)NC(=O)[C@@H](NC(=O)[C@H](Cc1ccccc1)NC(=O)[C@@H](NC(=O)CNC(=O)[C@H](CCC(N)=O)NC(=O)C(C)(C)NC(=O)[C@@H](N)Cc1c[nH]cn1)[C@@H](C)O)[C@@H](C)O)C(=O)N[C@@H](CC(=O)O)C(=O)N[C@@H](C)C(=O)N[C@@H](CCCNC(=N)N)C(=O)N[C@@H](C)C(=O)N[C@@H](C)C(=O)N[C@@H](CCCCNC(=O)COCCOCCNC(=O)COCCOCCNC(=O)CC[C@H](NC(=O)CCCCCCCCCCCCCCCCC(=O)O)C(=O)O)C(=O)N[C@@H](CC(=O)O)C(=O)N[C@@H](Cc1ccccc1)C(=O)N[C@H](C(=O)N[C@@H](CCC(=O)O)C(=O)N[C@@H](Cc1c[nH]c2ccccc12)C(=O)N[C@@H](CC(C)C)C(=O)N[C@@H](CCS(C)(=O)=O)C(=O)N[C@@H](CCCCN)C(=O)N[C@H](C(N)=O)[C@@H](C)O)C(C)C [TP705] (H-H[Aib]QGTFTSDYSKYLDARAAK([AEEA-AEEA-γGlu-C18 diacid])DFVEWL[Met(O2)]KT-NH2; N-terminus assumed)
5 | 1.4 | < 5 nM | < 5 nM | 0.35 nM | – | CC(C)C[C@H](NC(=O)[C@H](Cc1ccc(O)cc1)NC(=O)[C@H](CCCCN)NC(=O)[C@H](CO)NC(=O)[C@H](Cc1ccc(O)cc1)NC(=O)[C@H](CC(=O)O)NC(=O)[C@H](CO)NC(=O)[C@@H](NC(=O)[C@H](Cc1ccccc1)NC(=O)[C@@H](NC(=O)CNC(=O)[C@H](CCC(N)=O)NC(=O)C(C)(C)NC(=O)[C@@H](N)Cc1c[nH]cn1)[C@@H](C)O)[C@@H](C)O)C(=O)N[C@@H](CC(=O)O)C(=O)N[C@@H](C)C(=O)N[C@@H](CCCNC(=N)N)C(=O)N[C@@H](C)C(=O)N[C@@H](C)C(=O)N[C@@H](CCC(N)=O)C(=O)N[C@@H](CCC(=O)O)C(=O)N[C@@H](Cc1ccccc1)C(=O)N[C@H](C(=O)N[C@@H](CCCCNC(=O)COCCOCCNC(=O)COCCOCCNC(=O)CC[C@H](NC(=O)CCCCCCCCCCCCCCCCC(=O)O)C(=O)O)C(=O)N[C@@H](Cc1c[nH]c2ccccc12)C(=O)N[C@@H](CC(C)C)C(=O)N[C@@H](CCS(C)(=O)=O)C(=O)N[C@@H](CC(=O)O)C(=O)N[C@H](C(N)=O)[C@@H](C)O)C(C)C [TP702] (H-H[Aib]QGTFTSDYSKYLDARAAQEFVK([AEEA-AEEA-γGlu-C18 diacid])WL[Met(O2)]DT-NH2; N-terminus assumed)
